Laboratory results as given in US20240002342A1, “HERBICIDAL DERIVATIVES” (SYNGENTA CROP PROTECTION AG, priority 2020, published 2024).

Key:
Assay type in all cases: in vivo
[1] = system: Amaranthus retoflexus (AMARE); test: Post-emergence herbicidal test; details: 1000 g/ha unless otherwise stated, evaluated after 13 days
Protocol: (§1) Seeds of a variety of test species are sown in standard soil in pots (Amaranthus retoflexus (AMARE), Solanum nigrum (SOLNI), Setaria faberi (SETFA), Lolium perenne (LOLPE), Echinochloa crus-galli (ECHCG), Ipomoea hederacea (IPOHE)). After 8 days cultivation under controlled conditions in a glasshouse (at 24° C./16° C., day/night; 14 hours light; 65% humidity), the plants are sprayed with an aqueous spray solution derived from the formulation of the technical active ingredient in acetone/water (50:50) solution containing 0.5% Tween 20 (polyoxyethelyene sorbitan monolaurate, CAS RN 9005-64-5). Compounds are applied at 1000 g/ha unless otherwise stated. The test plants are then grown in a glasshouse under controlled conditions in a glasshouse (at 24° C./16° C., day/night; 14 hours light; 65% humidity) and watered twice daily. After 13 days the test is evaluated for the percentage damage caused to the plant. The biological activities are shown in the following table on a five-point scale (5=81-100%; 4=61-80%; 3=41-60%; 2=21-40%; 1=0-20%).

[2] = system: Echinochloa crus-galli (ECHCG); test: Post-emergence herbicidal test; details: 1000 g/ha unless otherwise stated, evaluated after 13 days
Protocol: as §1

[3] = system: Ipomoea hederacea (IPOHE); test: Post-emergence herbicidal test; details: 1000 g/ha unless otherwise stated, evaluated after 13 days
Protocol: as §1

Lolium perenne (LOLPE) [4] = test: Post-emergence herbicidal test; details: 1000 g/ha unless otherwise stated, evaluated after 13 days
Protocol: as §1

Setaria faberi (SETFA) [5] = test: Post-emergence herbicidal test; details: 1000 g/ha unless otherwise stated, evaluated after 13 days
Protocol: as §1

Solanum nigrum (SOLNI) [6] = test: Post-emergence herbicidal test; details: 1000 g/ha unless otherwise stated, evaluated after 13 days
Protocol: as §1

[7] = system: Amaranthus retoflexus (AMARE); test: Pre-emergence herbicidal test; details: 1000 g/ha unless otherwise stated
Solanum nigrum (SOLNI) [8] = test: Pre-emergence herbicidal test; details: 1000 g/ha unless otherwise stated
Setaria faberi (SETFA) [9] = test: Pre-emergence herbicidal test; details: 1000 g/ha unless otherwise stated
Lolium perenne (LOLPE) [10] = test: Pre-emergence herbicidal test; details: 1000 g/ha unless otherwise stated
[11] = system: Echinochloa crus-galli (ECHCG); test: Pre-emergence herbicidal test; details: 1000 g/ha unless otherwise stated
[12] = system: Ipomoea hederacea (IPOHE); test: Pre-emergence herbicidal test; details: 1000 g/ha unless otherwise stated

| Structure (SMILES) | percentage damage caused to the plant, AMARE (five-point scale) [1] | percentage damage caused to the plant, ECHCG (five-point scale) [2] | percentage damage caused to the plant, IPOHE (five-point scale) [3] | percentage damage caused to the plant, LOLPE (five-point scale) (Lolium perenne (LOLPE) [4]) | percentage damage caused to the plant, SETFA (five-point scale) (Setaria faberi (SETFA) [5]) | percentage damage caused to the plant, SOLNI (five-point scale) (Solanum nigrum (SOLNI) [6]) | percentage damage caused to the plant, AMARE (five-point scale) [7] | percentage damage caused to the plant, SOLNI (five-point scale) (Solanum nigrum (SOLNI) [8]) | percentage damage caused to the plant, SETFA (five-point scale) (Setaria faberi (SETFA) [9]) | percentage damage caused to the plant, LOLPE (five-point scale) (Lolium perenne (LOLPE) [10]) | percentage damage caused to the plant, ECHCG (five-point scale) [11] | percentage damage caused to the plant, IPOHE (five-point scale) [12] |
| --- | --- | --- | --- | --- | --- | --- | --- | --- | --- | --- | --- | --- |
| C=Cc1c(C)n(CC)c(-c2ccc(Cl)c(Cl)c2)c(C(=O)O)c1=O [Compound 2.001, 2-(3,4-dichlorophenyl)-1-ethyl-6-methyl-4-oxo-5-vinyl-pyridine-3-carboxylic acid] | 1 (1=0-20%) | 2 (2=21-40%) | 4 (4=61-80%) | 4 (4=61-80%) | 4 (4=61-80%) | 1 (1=0-20%) | 1 (1=0-20%) | 1 (1=0-20%) | 4 (4=61-80%) | 4 (4=61-80%) | 3 (3=41-60%) | 3 (3=41-60%) |
| C#Cc1c(C)n(CC)c(-c2ccc(Cl)c(Cl)c2)c(C(=O)O)c1=O [Compound 2.005, 2-(3,4-dichlorophenyl)-1-ethyl-5-ethynyl-6-methyl-4-oxo-pyridine-3-carboxylic acid] | 5 (5=81-100%) | 3 (3=41-60%) | 4 (4=61-80%) | 5 (5=81-100%) | 5 (5=81-100%) | 4 (4=61-80%) | 1 (1=0-20%) | 4 (4=61-80%) | 4 (4=61-80%) | 1 (1=0-20%) | 1 (1=0-20%) | 4 (4=61-80%) |
| CCn1c(C)c(C(C)=O)c(=O)c(C(=O)O)c1-c1ccc(Cl)c(Cl)c1 [Compound 2.008, 5-acetyl-2-(3,4-dichlorophenyl)-1-ethyl-6-methyl-4-oxo-pyridine-3-carboxylic acid] | 2 (2=21-40%) | 3 (3=41-60%) | 2 (2=21-40%) | 5 (5=81-100%) | 3 (3=41-60%) | 2 (2=21-40%) | 1 (1=0-20%) | 3 (3=41-60%) | 5 (5=81-100%) | 4 (4=61-80%) | 3 (3=41-60%) | 3 (3=41-60%) |
| CCn1c(C)c(C(=O)O)c(=O)c(C(=O)O)c1-c1ccc(Cl)c(Cl)c1 [Compound 2.010, 2-(3,4-dichlorophenyl)-1-ethyl-6-methyl-4-oxo-pyridine-3,5-dicarboxylic acid] | 2 (2=21-40%) | 1 (1=0-20%) | 2 (2=21-40%) | 1 (1=0-20%) | 1 (1=0-20%) | 2 (2=21-40%) | 1 (1=0-20%) | 3 (3=41-60%) | 1 (1=0-20%) | 2 (2=21-40%) | 1 (1=0-20%) | 1 (1=0-20%) |
| C=Cc1c(C)n(CC)c(-c2ccc(Cl)c(Cl)c2)c(C(=O)OC)c1=O [Compound 4.001, methyl 2-(3,4-dichlorophenyl)-1-ethyl-6-methyl-4-oxo-5-vinyl-pyridine-3-carboxylate] | 1 (1=0-20%) | 1 (1=0-20%) | 2 (2=21-40%) | 4 (4=61-80%) | 4 (4=61-80%) | 1 (1=0-20%) | 1 (1=0-20%) | 1 (1=0-20%) | 1 (1=0-20%) | 1 (1=0-20%) | 1 (1=0-20%) | 1 (1=0-20%) |
